Results taken from patent US12391683B2, “Therapeutic compounds and methods” (Actio Biosciences, Inc., priority 2022, dated 2025).
pEC50, pIC50: −log10 of the molar value.

Biological target: T1, TRPV2 channels (Homo sapiens, UniProt Q9Y5S1)
T1 construct: expressed in transfected cells; host or cells: HEK293 (transient)
T1 sequence (Q9Y5S1 1-764): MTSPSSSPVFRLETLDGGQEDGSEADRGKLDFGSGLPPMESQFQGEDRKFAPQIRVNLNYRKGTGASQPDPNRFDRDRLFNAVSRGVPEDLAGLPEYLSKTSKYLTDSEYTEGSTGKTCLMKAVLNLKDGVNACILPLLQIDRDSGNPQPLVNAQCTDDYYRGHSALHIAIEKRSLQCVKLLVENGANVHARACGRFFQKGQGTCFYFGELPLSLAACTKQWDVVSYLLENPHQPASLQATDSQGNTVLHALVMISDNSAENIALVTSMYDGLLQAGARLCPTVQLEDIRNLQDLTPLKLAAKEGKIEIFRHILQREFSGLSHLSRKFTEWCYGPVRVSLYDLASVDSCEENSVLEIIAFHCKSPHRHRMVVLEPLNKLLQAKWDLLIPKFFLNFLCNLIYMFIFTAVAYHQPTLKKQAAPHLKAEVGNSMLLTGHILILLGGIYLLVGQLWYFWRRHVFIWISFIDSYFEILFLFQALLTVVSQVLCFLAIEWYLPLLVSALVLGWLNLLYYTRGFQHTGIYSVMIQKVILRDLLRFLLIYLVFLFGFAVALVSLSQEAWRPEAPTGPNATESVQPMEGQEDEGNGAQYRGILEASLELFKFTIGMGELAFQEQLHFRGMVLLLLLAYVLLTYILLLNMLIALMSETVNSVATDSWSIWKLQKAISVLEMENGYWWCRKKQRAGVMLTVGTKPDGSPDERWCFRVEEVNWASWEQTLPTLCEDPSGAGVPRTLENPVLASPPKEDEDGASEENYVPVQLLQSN
Experiment: TRP Family FLIPR Assay, TRPV2
Type: cell-based
Conditions: HEK293 cells (transient)
Description: The compound of Example 5 was tested for selectivity against a panel of Human TRP family ion channels in a TRP Family FLIPR Assay as described below. • 1. TRPC3 channels (human TRPC3 variant 1 gene, expressed in HEK293 cells). • 2. TRPC4 channels (human TRPC4 gene, expressed in HEK293 cells). • 3. TRPC5 channels (human TRPC5 gene, expressed in HEK293 cells). • 4. TRPC6 channels (human TRPC6 gene, expressed in HEK293 cells). • 5. TRPM2 channels (human TRPM2 gene, transiently expressed in HEK293 cells). • 6. TRPM3 channels (human TRPM3 gene, transiently expressed in HEK293 cells). • 7. TRPM4 channels (human TRPM4 gene, expressed in CHO cells). • 8. […]
Data acquisition was performed via the FLIPR Control software supplied with the FLIPR System (MDS-AT) and data was analyzed using Microsoft Excel (Microsoft Corp., Redmond, WA) or GraphPad Prism. […]
[formula] where Base is the response at low concentrations of test article, Max is the maximum response at high concentrations, xhalf the EC50, or IC50, the concentration of test article producing either half-maximal activation or inhibition, and rate is the Hill coefficient. […] No assumptions about the fit parameters was made; the fit parameters were determined by the algorithm.
The effect of each test article was evaluated at eight (8) concentrations: 0.003, 0.01, 0.03, 0.1, 0.3, 1, 3 and 10 μM, n≤4 wells/concentration). […]

SMILES: CC(C)(O)c1cnc(N2C[C@@]3(CC[C@@H](F)[C@](C)(Cn4cnc5ccc(C#N)cc54)C3)OC2=O)cn1 (single isomer, unassigned) [Example 5]
- pEC50 (agonist mode, vs EMAX of cannabidiol 300 μM, read-out: EC50 hTRPV2): < 5.00
- pIC50 (antagonist mode, activated with capsaicin 100 μM, 0.003-10 μM, read-out: IC50 hTRPV2): < 5.00
